From patent US20090305960A1, “Melanocortin Receptor-Specific Peptides for Treatment of Obesity / 669” (Palatin Technologies, Inc, priority 2008, published 2009)
Where a SMILES comes first, the peptide text is derived from it. Bridges are numbered along the chain shown (N, C = ends). [ ]: non-standard residue; d: D form. The star is where a group is joined. Orn = NCCC[C@H](N)C(=O)O; Bn = c1ccc(C*)cc1

Tests used:
[1] = Induction of penile erection in male rats; type: in vivo, rat; settings: IV
Procedure: The ability of peptides of the present invention to induce penile erection (PE) in male rats were evaluated with selected peptides. Male Sprague-Dawley rats weighing 250-300 g were kept on a 12 hour on/off light cycle with food and water ad libitum. All behavioral studies were performed between 9 a.m. and 4 p.m. Groups of 6-8 rats were administered peptides at a variety of doses via an IV route. Immediately after treatment, rats were placed into individual polystyrene cages (27 cm long, 16 cm wide, and 25 cm high) for behavioral observation, typically by remote video monitoring. Rats are observed for one hour, and the number of yawns, grooming bouts and PEs are recorded in 10-minute bins.

[2] = Food intake and body weight change in rats; type: in vivo, rat; settings: for decrease in food consumption compared to control: rats
Procedure: Change in food intake and body weight was evaluated for selected peptides administered by intravenous (IV) or subcutaneous injection routes. Male Sprague-Dawley rats were obtained from Hilltop Lab Animals, Inc. (Scottsdale, Pa.) or other vendors. Animals were individually housed in conventional polystyrene hanging cages and maintained on a controlled 12 hour on/off light cycle. Water and pelleted food was provided ad libitum. The rats were dosed IV with vehicle or selected peptides (0.3 to 1.0 mg/kg), or dosed subcutaneously with vehicle or selected peptides (doses up to 30 mg/kg). The changes in body weight and food intake for the 24 hour period after dosing was determined. The changes in body weight and food intake for the 48 hour and 72 hour periods after dosing can also be measured to determine reversal of changes in body weight and food intake effects back to baseline levels.

[3] = target: T1, hMC4-R (Homo sapiens, UniProt P32245); experiment: Competitive binding assay using Eu-NDP-α-MSH, MC4-R
T1 construct: expressed in transfected cells; host or cells: HEK-293 (membrane homogenates)
Procedure: Competitive inhibition binding assays were performed using membrane homogenates prepared from HEK-293 cells that express recombinant hMC1-R, hMC3-R, hMC4-R, or hMC5-R. In the examples that follow, all MC1-R, MC3-R, MC4-R and MC5-R values are for human recombinant receptors. Assays were performed in 96 well GF/B Millipore multiscreen filtration plates (MAFB NOB10) pre-coated with 0.5% bovine serum albumin (Fraction V). Membrane homogenates were incubated with 0.1 nM [1^125]-NDP-α-MSH (Perkin Elmer) and increasing concentrations of test peptides of the present invention in buffer containing 25 mM HEPES buffer (pH 7.5) with 100 mM NaCl, 2 mM CaCl2, 2 mM MgCl2, 0.3 mM 1,10-phenanthroline, and 0.1% bovine serum albumin. After incubation for 90 minutes at 37° C., the assay mixture was filtered and the membranes washed with 1 mL of cold 1×PBS wash buffer per well. 35 μL of scintillation cocktail was added to each well and the plates counted on a Microbeta counter for 1 minute per well. Non-specific binding was measured by inhibition of binding of [I^125]-NDP-α-MSH in the presence of 1 μM NDP-α-MSH. Maximal specific binding (100%) was defined as the difference in radioactivity (cpm) bound to cell membranes in the absence and presence of 1 μM NDP-α-MSH. Radioactivity (cpm) obtained in the presence of test compounds was normalized with respect to 100% specific binding to determine the percent inhibition of [I^125]-NDP-α-MSH binding. Each assay was conducted in duplicate and actual mean values are described, with results less than 0% reported as 0%. Ki values for test peptides of the present invention were determined using Graph-Pad Prism® curve-fitting software.
Alternatively, a competitive inhibition binding assay was performed employing Eu-NDP-α-MSH (PerkinElmer Life Sciences catalog No. AD0225) with determination by time-resolved fluorometry (TRF) of the lanthanide chelate. In comparison studies with [I^125]-NDP-α-MSH, the same values, within experimental error ranges, were obtained for percent inhibition and Ki. Typically competition experiments to determine Ki values were conducted by incubating membrane homogenates prepared from HEK-293 cells that express recombinant hMC4-R with 9 different concentrations of test compounds of interest and 1 nM of Eu-NDP-α-MSH in a solution containing 25 mM HEPES buffer with 100 mM NaCl, 2 mM CaCl2, 2 mM MgCl2, 0.1% BSA, and 0.3 mM 1,10-phenanthroline. After incubation for 90 minutes at 37° C., the reaction was stopped by filtration over AcroWell 96-well filter plates (Pall Life Sciences). The filter plates were washed 4 times with 200 μL of ice-cold phosphate-buffered saline. DELFIA Enhancement solution (PerkinElmer Life Sciences) was added to each well. The plates were incubated on a shaker for 15 minutes and read at 340 nm excitation and 615 nm emission wavelengths. Each assay was conducted in duplicate and mean values were utilized. Ki values were determined by curve-fitting with Graph-Pad Prism® software using a one-site fixed-slope competition binding model.

[4] = target: T2, hMC1-R (Homo sapiens, UniProt Q01726); experiment: Competitive binding assay, MC1-R; settings: competitive studies using Eu-NDP-α-MSH / NDP-α-MSH
T2 construct: expressed in transfected cells; host or cells: HEK-293 (membrane homogenates)
Procedure: Competitive inhibition binding assays were performed using membrane homogenates prepared from HEK-293 cells that express recombinant hMC1-R, hMC3-R, hMC4-R, or hMC5-R. In the examples that follow, all MC1-R, MC3-R, MC4-R and MC5-R values are for human recombinant receptors. Assays were performed in 96 well GF/B Millipore multiscreen filtration plates (MAFB NOB10) pre-coated with 0.5% bovine serum albumin (Fraction V). […] 35 μL of scintillation cocktail was added to each well and the plates counted on a Microbeta counter for 1 minute per well. […] Maximal specific binding (100%) was defined as the difference in radioactivity (cpm) bound to cell membranes in the absence and presence of 1 μM NDP-α-MSH. […] Ki values for test peptides of the present invention were determined using Graph-Pad Prism® curve-fitting software.
Alternatively, a competitive inhibition binding assay was performed employing Eu-NDP-α-MSH (PerkinElmer Life Sciences catalog No. AD0225) with determination by time-resolved fluorometry (TRF) of the lanthanide chelate. […] The plates were incubated on a shaker for 15 minutes and read at 340 nm excitation and 615 nm emission wavelengths. […] Ki values were determined by curve-fitting with Graph-Pad Prism® software using a one-site fixed-slope competition binding model.

[5] = rat feeding studies, overall finding in words

T1 sequence (P32245 whole entry): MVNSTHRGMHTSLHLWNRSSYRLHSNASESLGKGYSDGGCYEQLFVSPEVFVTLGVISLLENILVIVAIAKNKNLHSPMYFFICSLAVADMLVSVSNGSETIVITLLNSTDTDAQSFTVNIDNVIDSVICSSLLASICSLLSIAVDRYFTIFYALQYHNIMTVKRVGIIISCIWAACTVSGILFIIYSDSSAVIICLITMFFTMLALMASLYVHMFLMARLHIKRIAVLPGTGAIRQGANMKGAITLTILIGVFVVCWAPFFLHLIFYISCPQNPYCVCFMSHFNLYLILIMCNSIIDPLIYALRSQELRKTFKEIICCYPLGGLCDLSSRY
T2 sequence (Q01726 whole entry): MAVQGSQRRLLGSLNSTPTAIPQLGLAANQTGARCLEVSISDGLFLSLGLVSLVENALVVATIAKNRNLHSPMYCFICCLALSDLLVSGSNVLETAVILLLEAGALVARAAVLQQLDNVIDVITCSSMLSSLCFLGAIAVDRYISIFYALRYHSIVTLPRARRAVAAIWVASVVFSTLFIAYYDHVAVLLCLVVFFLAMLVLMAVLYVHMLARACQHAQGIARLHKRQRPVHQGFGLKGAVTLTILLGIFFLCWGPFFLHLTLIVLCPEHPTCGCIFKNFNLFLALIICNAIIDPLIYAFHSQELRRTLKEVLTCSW

Ki ([3]; competitive studies using Eu-NDP-α-MSH / NDP-α-MSH, average of several studies, read-out: Ki value at MC4-R): 0.009 µM | selectivity for MC4-R (binding against MC1-R, MC3-R and MC4-R) ([3]; in words): highly selective for MC4-R | Ki [4]: 2.04 µM
SMILES: CC(=O)N[C@@H](CCCNC(=N)N)C(=O)N[C@H]1CCCNC(=O)CC[C@@H](C(=O)O)NC(=O)[C@H](Cc2c[nH]c3ccccc23)NC(=O)[C@H](CCCNC(=N)N)NC(=O)[C@@H](Cc2ccccc2)NC(=O)[C@H](COCc2ccccc2)NC1=O [Compound 7, Ac-Arg-cyclo(Orn-Ser(Bzl)-D-Phe-Arg-Trp-Glu)-OH] (Ac-R[Orn]S(Bn)[dF]RWE-OH; lactam 2-7)
average spontaneous erections per rat in one hour ([1]; 1 mg/kg): 1.429±0.69 spontaneous erections per rat in one hour | increase in observed spontaneous erections ([1]; in words): not found to result in a statistically significant increase | food intake [2, 5]: reduce food intake | rate of change in body weight [2, 5]: decrease the rate of change in body weight | decrease in food consumption compared to control ([2]; 0.3 mg/kg, 0-2 hour period): statistically significant | decrease in food consumption compared to control ([2]; 0.3 mg/kg, 0-4 hour period): statistically significant | decrease in food consumption compared to control ([2]; 0.3 mg/kg, 0-20 hour period): statistically significant | decrease in food consumption compared to control ([2]; 1 mg/kg, 0-4 hour period): statistically significant | decrease in food consumption compared to control ([2]; 1 mg/kg, 0-20 hour period): statistically significant | decrease in food consumption compared to control ([2]; 1 mg/kg, 4-20 hour period): statistically significant
